Values quoted from earlier work as cited in patent publication US10500232B2, “Small molecule cellular reprogramming to generate neuronal cells” (The J. David Gladstone Institutes, a testamentary trust …, priority 2013, dated 2019).

Molecular target: mGlu4 (Homo sapiens, UniProt Q14833)
Conditions: read-out: EC50 against mGlu4; cited from earlier work

Sequence of mGlu4 (Q14833 33-912): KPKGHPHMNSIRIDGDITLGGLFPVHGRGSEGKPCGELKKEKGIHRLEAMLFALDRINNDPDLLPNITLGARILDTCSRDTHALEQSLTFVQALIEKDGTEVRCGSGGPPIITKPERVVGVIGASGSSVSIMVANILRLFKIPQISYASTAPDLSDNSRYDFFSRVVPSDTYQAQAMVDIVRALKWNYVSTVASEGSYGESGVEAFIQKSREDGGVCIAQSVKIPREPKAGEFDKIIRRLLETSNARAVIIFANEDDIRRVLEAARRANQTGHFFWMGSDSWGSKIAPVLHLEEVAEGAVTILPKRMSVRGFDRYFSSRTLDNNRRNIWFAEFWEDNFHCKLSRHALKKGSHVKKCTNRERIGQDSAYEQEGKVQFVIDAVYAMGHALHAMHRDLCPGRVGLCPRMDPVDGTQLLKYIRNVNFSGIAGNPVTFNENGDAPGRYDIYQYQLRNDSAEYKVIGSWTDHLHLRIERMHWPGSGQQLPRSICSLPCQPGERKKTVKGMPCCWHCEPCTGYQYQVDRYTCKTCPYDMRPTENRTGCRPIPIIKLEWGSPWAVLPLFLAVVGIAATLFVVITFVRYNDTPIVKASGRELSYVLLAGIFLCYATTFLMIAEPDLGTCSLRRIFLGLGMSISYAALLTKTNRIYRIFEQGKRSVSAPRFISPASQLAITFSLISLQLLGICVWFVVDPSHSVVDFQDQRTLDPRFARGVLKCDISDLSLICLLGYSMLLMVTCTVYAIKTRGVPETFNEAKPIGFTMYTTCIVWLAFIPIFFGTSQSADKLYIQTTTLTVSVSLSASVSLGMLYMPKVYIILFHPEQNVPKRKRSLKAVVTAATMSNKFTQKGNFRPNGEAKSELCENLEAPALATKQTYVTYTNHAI

COc1cc(NC(=O)c2ccccn2)ccc1Cl [ML128, N-(4-chloro-3-methoxyphenyl)pyridine-2-carboxamide]
EC50: 200 to 2300 nM
